# Test results reported in patent publication US6784155B1, “Inhibitor and stimulator of stem cell proliferation and uses thereof” (Wellstat Therapeutics Corporation, priority 1996, dated 2004).
# No end group written: not given here.
# What was measured:
# CFU-MIX [1] = test: CFU-MIX cycling assay after in vivo injection into testosterone or 5FU treated mice; design: species or system mouse
# Description: In order to test the ability of purified porcine hemoglobin chains to act in vivo, BDF1 mice were injected with testosterone propionate as described in Example 1. Twenty four hours later, mice received 500 ng of either pINPROL, porcine hemoglobin alpha chain (purified from peripheral red blood cells as in FIG. 21), porcine beta chain (purified from peripheral red blood cells as in FIG. 21) or the equivalent volume of carrier intravenously. Forty eight hours later the bone marrow from each mouse was harvested and the CFU-MIX assay conducted as described in Example 14.
# To assess the stem cell inhibitory activity of peptide 43-55 in vivo, B6D2 F1 mice were pre-treated with testosterone propionate as described in Example 1 or with 5FU. Specifically, testosterone propionate (100 mg/kg body weight) was injected i.p. on Day 0 into mice. Alternatively, mice were injected on Day 0 with 5FU ([…] body weight).
# 24 hours later (Day 1), varying doses of peptide 43-55 or vehicle were injected i.v. Bone marrow was harvested on Day 2 and the […] cycling assay conducted as in Example 14. Specifically, mice were sacrificed and single cell bone marrow suspensions prepared from the femurs. The cells were washed once and the concentration adjusted to 5×10^6 cells/ml in Fischer medium. For each test condition, one milliliter of cells was added to each of two polypropylene tubes. The tubes were incubated at 37° C. for 3 hours without (“Control”) or with (“Experimental”) the appropriate concentration of test substance. At the end of the incubation, 30 μg/ml of cytosine arabinoside (“Ara C” (Sigma)) was added to half of the tubes and the same volume of Fischer's medium was added to the others. The tubes were incubated for a further 1 hour at 37° C., after which they were placed on ice and washed twice with cold Fischer medium.
# The cells were readjusted to 5×10^4-10^6/ml in Fischer's medium and 0.5 ml of cell suspension added to 5 ml of Methocult M3430 methylcellulose medium (Stem Cell Technologies, Vancouver, British Columbia). The mixture was vigorously mixed with a vortex and 1 ml was dispensed into each of five 35 mm dishes. The 35 mm dishes were in turn placed in a covered 150 mm dish with one open 35 mm dish containing sterile water. CFU-MIX colonies were counted with the use of an inverted microscope after 7 days of incubation at 37° C.
# Differences in colony number between the tubes treated with medium versus the tubes treated with Ara C represent the percentage of cells in cycle under that condition according to the formula: […]
# CFU-MIX [2] = test: Stimulation of cycling of quiescent murine stem cells after i.v. administration; format: in vivo; details: Table 43, untreated B6D2F1 mice, 150 μg/mouse i.v., marrow 24 hours later
# Description: Human alpha hemoglobin was injected i.v. into untreated B6D2F1 mice. 24 hours later, the mice were sacrificed, bone marrow collected from femurs and the CFU-MIX assay conducted as in Example 24.
# [3] = tested on: cobblestone area forming cells (CAFC); test: Cobblestone assay (CAFC); format: cell-based, mouse
# Description: The cobblestone assay was conducted as described by Ploemacher and colleagues (Ploemacher et al., Blood 74:2755-63, 1989; van der Sluijs et al., Exp. Hematol. 18:893-6, 1990; Ploemacher et al., Blood 78:2527-33, 1991; Ploemacher et al., J. Tiss. Cult. Meth. 13:63-68, 1991; Down and Ploemacher, Exp. Hematol. 21:213-21, 1993). The cobblestone assay measures the appearance of groups of cells (or “cobblestones”) within a monolayer of stromal cells. Very primitive stem cells will not form colonies in soft agar but do form cobblestones in the presence of a stromal monolayer. The cells which form cobblestones are referred to as “cobblestone area forming cells” (CAFC). The more differentiated (e.g., GM-CFC) progenitors form transient cobblestones which appear and then disappear within the first few weeks of culture whereas more primitive stem cells (e.g., long-term repopulating cells) form cobblestones which appear only after 4-5 weeks of culture. Thus, CAFC forming on days 7-14 of culture are enriched in CFU-GM, CAFC forming on […] are enriched in CFU-MIX, and CAFC forming on days 28-35 are enriched in long-term repopulating cells. […]
# The frequency of cobblestone area forming cells (CAFC) was calculated as previously described (Ploemacher et al., Blood 78:2527-33, 1991; Ploemacher et al., J. Tiss. Cult. Meth. 13:63-68, 1991; Breems et al., Leukemia 8:1095-104, 1994). […]
# CFU-MIX [4] = test: Stimulation of cycling of quiescent murine stem cells, CFU-MIX cycling assay in vitro; format: cell-based, mouse; details: Table 44, 100 ng/ml, alone
Substance,"% Kill (CFU-MIX [1]; Table 22, testosterone-pretreated animals, 0.5 ng i.v. per 20 gram mouse)","% Kill (CFU-MIX [1]; Table 23, 5FU-pretreated animals, 0.5 ng i.v. per 20 gram mouse)",% Kill (CFU-MIX [2]),"% Kill (CFU-MIX [1]; Table 14, testosterone-treated BDF1 mice, 500 ng/mouse)","% Kill (CFU-MIX [1]; Table 22, testosterone-pretreated animals, 500 ng i.v. per 20 gram mouse)","% Kill (CFU-MIX [1]; Table 23, 5FU-pretreated animals, 500 ng i.v. per 20 gram mouse)","increase of the proportion of late-forming CAFC ([3]; cycling stem cells (testosterone propionate treated B6D2F1), 100 ng/10^6 cells, 4 hours)",effect on CAFC of non-cycling stem cells ([3]; non-cycling stem cells),% Kill (CFU-MIX [4])
"FPHFDLSHGSAQV [Peptide 43-55, amino acids 43-55 of human alpha hemoglobin]",0%,3%,,,,,,,
"Human alpha chain: purified, non-recombinant human alpha hemoglobin chain isolated by reversed-phase HPLC",,,48%,−22%,13%,0%,approximately 5 fold,no effect,48%
